In patent US20210177828A1, “TAM FAMILY KINASE /AND CSF1R KINASE INHIBITOR AND USE THEREOF” (Nanjing Transthera Biosciences Co., Ltd., priority 2018, published 2021):

How the values were obtained:
H1299 cell pMer = target: T1, H1299 cell pMer (Homo sapiens, UniProt Q12866); test: Inhibitory activity on cell pMer, H1299 cells, Human Mer Mab stimulation, Western Blot; format: cell-based; conditions: Human Mer Mab 200 ng/mL
T1 construct: endogenous in cells; host or cells: H1299
T1 sequence (Q12866 21-999): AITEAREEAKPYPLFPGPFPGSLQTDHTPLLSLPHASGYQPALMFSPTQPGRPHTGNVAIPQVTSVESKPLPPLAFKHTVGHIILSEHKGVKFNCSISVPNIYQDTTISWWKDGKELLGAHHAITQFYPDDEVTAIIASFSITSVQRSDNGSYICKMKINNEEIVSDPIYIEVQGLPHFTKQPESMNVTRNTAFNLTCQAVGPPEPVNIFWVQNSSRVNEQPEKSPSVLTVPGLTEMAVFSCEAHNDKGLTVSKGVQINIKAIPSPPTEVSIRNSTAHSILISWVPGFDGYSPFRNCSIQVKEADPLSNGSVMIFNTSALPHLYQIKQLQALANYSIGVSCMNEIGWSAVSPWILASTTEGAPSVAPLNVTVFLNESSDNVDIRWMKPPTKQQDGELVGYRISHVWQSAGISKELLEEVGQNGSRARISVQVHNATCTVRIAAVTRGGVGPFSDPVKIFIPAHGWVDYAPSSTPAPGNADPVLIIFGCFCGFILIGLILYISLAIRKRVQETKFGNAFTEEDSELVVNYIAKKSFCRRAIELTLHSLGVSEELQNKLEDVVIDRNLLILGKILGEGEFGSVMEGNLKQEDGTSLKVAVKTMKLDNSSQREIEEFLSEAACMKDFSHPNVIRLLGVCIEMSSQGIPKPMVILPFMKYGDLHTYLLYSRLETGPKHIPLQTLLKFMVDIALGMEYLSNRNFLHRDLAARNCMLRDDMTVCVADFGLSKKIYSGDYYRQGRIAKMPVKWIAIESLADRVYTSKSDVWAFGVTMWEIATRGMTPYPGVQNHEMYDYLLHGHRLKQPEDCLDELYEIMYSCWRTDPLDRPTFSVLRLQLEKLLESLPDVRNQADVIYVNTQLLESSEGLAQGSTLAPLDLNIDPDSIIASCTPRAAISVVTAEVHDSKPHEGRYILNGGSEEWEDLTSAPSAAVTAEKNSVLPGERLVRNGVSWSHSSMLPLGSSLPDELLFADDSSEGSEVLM
Procedure: H1299 is anon-small cell lung cancer cell.
H1299 cells were inoculated to a 6-well plate (containing 10% FBS 1640 medium, 5×10^5 cells per well) and adherently cultivated at 37° C., and 5% CO2 for 18 hrs. The cells were starved overnight, and then compound solutions with different concentrations were added. The compounds had final concentrations of 0.35, 1.1, 3.3 and 10 nM. […] There was a medium containing 1‰DMSO in the negative control well. The cells were incubated at 37° C., and 5% CO2 for 60 min, and then Human Mer Mab (R&D, final concentration: 200 ng/mL) was added to each well. The cells were further incubated for 60 min, and then the total protein of the cells was extracted for Western Blot experiment. Gray analysis was performed on the results with Image J software, and IC50 values were calculated with GraphPad 5.0 software. The inhibitory activities of the compounds on cell pMer were detected.

[1] = Liver microsomal stability; format: in vitro ADME; conditions: mouse liver microsomes, 0.5 mg protein/mL, 1 μM compound
Procedure: An appropriate amount of the compound was precisely weighed and dissolved in DMSO to prepare a 5.0 mM stock solution. The 5.0 mM stock solution was diluted with DMSO to 1.0 mM, and finally diluted with water to a 10 μM working solution of the test sample for use (the DMSO content in the reaction system was 0.1%).
(1) The liver microsomes (20 mg protein/mL) were taken from a −80° C. refrigerator, pre-incubated on a 37° C. water bath thermostatic oscillator for 3 min, and thawed for use.
(2) An incubation system (without compound and β-NADPH) was prepared according to “composition of the incubation system” described above, and pre-incubated on a 37° C. water bath thermostatic oscillator for 2 min.
(3) Control group (without β-NADPH): 30 μL of water and 30 μL of compound working solution (10 μM) were added to 240 μL of the incubation system in step (2), and the reaction system was vortexed for 30 s and thoroughly mixed. The total volume of the reaction system was 300 μL. The sample was duplicated. The reaction solution was placed on a 37° C. water bath thermostatic oscillator for incubation, and timing was started. The sampling was conducted at 0 min and 60 min.
(4) Sample group: 70 μL of β-NADPH solution (10 mM) and 70 μL of compound working solution (10 μM) were added to 560 μL of the incubation system in step (2), and the total volume of the reaction system was 700 μL. The reaction solution was vortexed for 30 s and thoroughly mixed. The sample was duplicated. The reaction solution was placed on a 37° C. water bath thermostatic oscillator for incubation, and timing was started. The sampling was conducted at 0 min, 5 min, 10 min, 20 min, 30 min and 60 min.
(5) The reaction solution was vortexed for 3 min, and centrifuged at 12,000 rpm for 5 min.
(6) 50 μL of the supernatant was added to 150 μL of water, and the resulting solution was thoroughly vortexed and analyzed by LC/MS/MS.

| SMILES | IC50 (H1299 cell pMer) [nM] | half-life at 1 μM [1] [h] | microsomal CLint at 1 μM [1] [µL/min/mg] |
| --- | --- | --- | --- |
| COc1cc2nccc(Oc3ccc(NC(=O)c4nn(C5CCOCC5)cc(-c5ccc(C)cc5)c4=O)cc3F)c2cc1OC [Compound 28] | 1.1 | 1.44 | 16 |
| COc1cc2nccc(Oc3ccc(NC(=O)c4cn(CC5CCSCC5)cc(-c5ccc(C)cc5)c4=O)nc3)c2cc1OC [Compound 9, N-(5-((6,7-dimethoxyquinolin-4-yl)oxy)pyridin-2-yl)-4-oxo-1-((tetrahydro-2H-thiopyran-4-yl)methyl)-5-(p-tolyl)-1,4-dihydropyridin-3-carboxamide] | 1.1 to 3.3 | 0.818 | 28.2 |
| COc1cc2nccc(Oc3cnc(NC(=O)c4cn(C5CCOCC5)cc(-c5ccc(C)cc5)c4=O)nc3)c2cc1OC [Compound 20, N-(5-((6,7-dimethoxyquinolin-4-yl)oxy)pyrimidin-2-yl)-4-oxo-1-(tetrahydro-2H-pyran-4-yl)-5-(p-tolyl)-1,4-dihydropyridin-3-carboxamide] | 3.3 to 10 | 3.73 | 6.2 |
| COc1cc2nccc(Oc3cnc(NC(=O)c4cn(C5CCOCC5)cc(-c5ccc(F)cc5)c4=O)nc3)c2cc1OC [Compound 31, N-(5-((6,7-dimethoxyquinolin-4-yl)oxy)pyrimidin-2-yl)-5-(4-fluorophenyl)-4-oxo-1-(tetrahydro-2H-pyran-4-yl)-1,4-dihydropyridin-3-carboxamide] | 3.3 to 10 | 6.42 | 3.6 |
| COc1cc2nccc(Oc3cnc(NC(=O)c4nn(C5CCOCC5)cc(-c5ccc(C)cc5)c4=O)nc3)c2cc1OC [Compound 18, N-(5-((6,7-dimethoxyquinolin-4-yl)oxy)pyrimidin-2-yl)-4-oxo-1-(tetrahydro-2H-pyran-4-yl)-5-(p-tolyl)-1,4-dihydropyridazin-3-carboxamide] | < 1.1 | 1.93 | 12 |
| COc1cc2nccc(Oc3ccc(NC(=O)c4cn(CC5CC[S+]([O-])CC5)cc(-c5ccc(C)cc5)c4=O)nc3)c2cc1OC (centres unmarked) [Compound 8, N-(5-((6,7-dimethoxyquinolin-4-yl)oxy)pyridin-2-yl)-1-((1-oxotetrahydro-2H-thiopyran-4-yl)methyl)-4-oxo-5-(p-tolyl)-1,4-dihydropyridin-3-carboxamide] | – | 3.22 | 7.2 |
| COc1cc2nccc(Oc3cnc(NC(=O)c4cn(CC5CCOCC5)cc(-c5ccc(C)cc5)c4=O)nc3)c2cc1OC [Compound 4, N-(5-((6,7-dimethoxyquinolin-4-yl)oxy)pyrimidin-2-yl)-4-oxo-1-((tetrahydro-2H-pyran-4-yl)methyl)-5-(p-tolyl)-1,4-dihydropyridin-3-carboxamide] | 1.1 | 3.22 | 7.2 |
| COc1cc2nccc(Oc3cnc(NC(=O)c4nn(C5CCOCC5)cc(-c5ccc(F)cc5)c4=O)nc3)c2cc1OC [Compound 33, N-(5-((6,7-dimethoxyquinolin-4-yl)oxy)pyrimidin-2-yl)-5-(4-fluorophenyl)-4-oxo-1-(tetrahydro-2H-pyran-4-yl)-1,4-dihydropyridazin-3-carboxamide] | – | 4.82 | 4.8 |
| Cc1ccc(-c2cn(C3CCOCC3)nc(C(=O)Nc3ccc(Oc4ccnc5cc6c(cc45)OCO6)cn3)c2=O)cc1 [Compound 29, N-(5-([1,3]dioxolo[4,5-g]quinolin-8-yloxy)pyridin-2-yl)-4-oxo-1-(tetrahydro-2H-pyran-4-yl)-5-(p-tolyl)-1,4-dihydropyridazin-3-carboxamide] | – | 1.6 | 14.4 |
| Cc1ccc(-c2cn(C3CCOCC3)nc(C(=O)Nc3ccc(Oc4ccnc5cc6c(cc45)OCCO6)cn3)c2=O)cc1 [Compound 30, N-(5-((2,3-dihydro-[1,4]dioxino[2,3-g]quinolin-9-yl)oxy)pyridin-2-yl)-4-oxo-1-(tetrahydro-2H-pyran-4-yl)-5-(p-tolyl)-1,4-dihydropyridazin-3-carboxamide] | – | 1.38 | 16.8 |

More lines, now with the values ahead:

| IC50 (H1299 cell pMer) [nM] | half-life at 1 μM [1] [h] | microsomal CLint at 1 μM [1] [µL/min/mg] | SMILES |
| --- | --- | --- | --- |
| 1.1 | – | – | COc1cc2nccc(Oc3ccc(NC(=O)c4nn(CC5CCOCC5)cc(-c5ccc(C)cc5)c4=O)nc3)c2cc1OC [Compound 2, N-(5-((6,7-dimethoxyquinolin-4-yl)oxy)pyridin-2-yl)-4-oxo-1-((tetrahydro-2H-pyran-4-yl)methyl)-5-(p-tolyl)-1,4-dihydropyridazin-3-carboxamide] |
| 1.1 to 3.3 | – | – | COc1cc2nccc(Oc3ccc(NC(=O)c4cn(CC5CCOCC5)cc(-c5ccc(C)cc5)c4=O)nc3)c2cc1OC [Compound 1, N-(5-((6,7-dimethoxyquinolin-4-yl)oxy)pyridin-2-yl)-4-oxo-1-((tetrahydro-2H-pyran-4-yl)methyl)-5-(p-tolyl)-1,4-dihydropyridin-3-carboxamide] |
| < 0.35 | 2.27 | 10.2 | COc1cc2nccc(Oc3ccc(NC(=O)c4cn(C5CCOCC5)cc(-c5ccc(C)cc5)c4=O)nc3)c2cc1OC [Compound 19, N-(5-((6,7-dimethoxyquinolin-4-yl)oxy)pyridin-2-yl)-4-oxo-1-(tetrahydro-2H-pyran-4-yl)-5-(p-tolyl)-1,4-dihydropyridin-3-carboxamide] |
| – | 5.25 | 4.4 | COc1cc2nccc(Oc3ccc(NC(=O)c4nn(C5CCOCC5)cc(-c5ccc(F)cc5)c4=O)nc3)c2cc1OC [Compound 34, N-(5-((6,7-dimethoxyquinolin-4-yl)oxy)pyridin-2-yl)-5-(4-fluorophenyl)-4-oxo-1-(tetrahydro-2H-pyran-4-yl)-1,4-dihydropyridazin-3-carboxamide] |
| 1.1 | 1.39 | 16.6 | COc1cc2nccc(Oc3ccc(NC(=O)c4cc(CC5CCOCC5)cn(-c5ccc(F)cc5)c4=O)nc3)c2cc1OC [Compound 32, N-(5-((6,7-dimethoxyquinolin-4-yl)oxy)pyridin-2-yl)-1-(4-fluorophenyl)-2-oxo-5-((tetrahydro-2H-pyran-4-yl)methy 1)-1,2-dihydropyridin-3-carboxamide] |
| – | 1.75 | 13.2 | COc1cc2nccc(Oc3ccc(NC(=O)c4cc(CC5CCOCC5)cn(-c5ccc(C)cc5)c4=O)nc3)c2cc1OC [Compound 26, N-(5-((6,7-dimethoxyquinolin-4-yl)oxy)pyridin-2-yl)-oxo-5-((tetrahydro-2H-pyran-4-yl)methyl)-1-(p-tolyl)-1,2-dihydropyridin-3-carboxamide] |
